Results reported in paper PMC3660597, “Investigation of Specificity Determinants in Bacterial tRNA-Guanine Transglycosylase Reveals Queuine, the Substrate of Its Eucaryotic Counterpart, as Inhibitor” (PLoS ONE, 2013).
Residue numbers refer to the chain shown, from its start. Where two headings read alike, the source gives them in different places.

Key:
[1] = biological target: T1, Z. mobilis Tgt ("wild type" Tgt = Tgt(Tyr106Phe)) (Zymomonas mobilis, UniProt P28720, Y106F); test: inhibition of [[…]-3H]-guanine incorporation into tRNA(Tyr); type: biochemical; conditions: read-out: K ic
T1 construct: recombinant from pET9d-ZM-Y106F in E. coli BL21(DE3)/pLysS, purified; homodimer; all variants including "wild type" carry Tyr106Phe
Target sequence in this assay (P28720 2-386 Y106F/C158V): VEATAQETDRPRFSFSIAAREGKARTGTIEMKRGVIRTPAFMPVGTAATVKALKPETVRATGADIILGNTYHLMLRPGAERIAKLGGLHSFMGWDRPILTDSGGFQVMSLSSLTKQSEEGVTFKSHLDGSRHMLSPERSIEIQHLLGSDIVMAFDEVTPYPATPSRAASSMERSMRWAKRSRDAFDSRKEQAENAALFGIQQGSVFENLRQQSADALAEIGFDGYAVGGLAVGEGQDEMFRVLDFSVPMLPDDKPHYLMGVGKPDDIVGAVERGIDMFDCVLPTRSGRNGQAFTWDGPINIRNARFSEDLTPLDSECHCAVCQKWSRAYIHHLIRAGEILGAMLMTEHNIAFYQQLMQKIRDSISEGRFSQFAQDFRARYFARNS

[2] = biological target: T1, Z. mobilis Tgt ("wild type" Tgt = Tgt(Tyr106Phe)); test: as above; type: biochemical; conditions: read-out: K ic; remark: listed apart in the source
Target sequence in this assay (P28720 2-386 Y106F): as the sequence (P28720 2-386 Y106F/C158V) above, with V157C counted along it

[3] = biological target: T2, Z. mobilis Tgt ("wild type" Tgt = Tgt(Tyr106Phe)) (Zymomonas mobilis, UniProt P28720, Y106F/C158V/A232S/V233G); test: X-ray crystal structure of complex; type: binding
T2 construct: recombinant from pET9d-ZM-Y106F in E. coli BL21(DE3)/pLysS, purified; homodimer; all variants including "wild type" carry Tyr106Phe
T2 sequence (P28720 2-386 Y106F/C158V/A232S/V233G): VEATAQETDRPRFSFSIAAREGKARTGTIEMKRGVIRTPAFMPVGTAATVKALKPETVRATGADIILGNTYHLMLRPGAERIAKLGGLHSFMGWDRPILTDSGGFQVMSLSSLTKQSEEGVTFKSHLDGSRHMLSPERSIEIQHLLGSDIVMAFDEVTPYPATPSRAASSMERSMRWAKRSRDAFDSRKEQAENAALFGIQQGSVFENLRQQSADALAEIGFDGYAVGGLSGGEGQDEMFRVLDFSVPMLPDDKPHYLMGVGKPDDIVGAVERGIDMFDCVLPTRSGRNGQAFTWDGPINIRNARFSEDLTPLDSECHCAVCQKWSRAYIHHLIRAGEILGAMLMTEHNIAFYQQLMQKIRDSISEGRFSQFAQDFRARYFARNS

[4] = biological target: T3, Z. mobilis Tgt ("wild type" Tgt = Tgt(Tyr106Phe)) (Zymomonas mobilis, UniProt P28720, C158V/V233G/Y106F); test: inhibition of [[…]-3H]-guanine incorporation into tRNA(Tyr); type: biochemical; conditions: read-out: K ic
T3 construct: recombinant from pET9d-ZM-Y106F in E. coli BL21(DE3)/pLysS, purified; homodimer; all variants including "wild type" carry Tyr106Phe
T3 sequence (P28720 2-386 Y106F/C158V/V233G): T2 sequence (P28720 2-386 Y106F/C158V/A232S/V233G) with S231A

[5] = biological target: T4, Z. mobilis Tgt ("wild type" Tgt = Tgt(Tyr106Phe)) (Zymomonas mobilis, UniProt P28720, V233G/Y106F); test: as above; type: biochemical; conditions: read-out: K ic
T4 construct: recombinant from pET9d-ZM-Y106F in E. coli BL21(DE3)/pLysS, purified; homodimer; all variants including "wild type" carry Tyr106Phe
T4 sequence (P28720 2-386 Y106F/V233G): T2 sequence (P28720 2-386 Y106F/C158V/A232S/V233G) with V157C, S231A

| Compound | Ki [1] [µM] | Ki [2] [µM] | X-ray crystal structure of complex ([3]; cocrystallisation) | Ki [4] [µM] | Ki [5] [µM] | X-ray crystal structure of complex ([3]; soaking) |
| --- | --- | --- | --- | --- | --- | --- |
| Nc1nc2[nH]cc(CN[C@H]3C=C[C@H](O)[C@@H]3O)c2c(=O)[nH]1 [queuine, 7-(((4,5-cis-dihydroxy-2-cyclopenten-1-yl)amino)methyl)-7-deazaguanine] | 3.8 ± 0.5 | 3.8 ± 0.6 | in complex with preQ1 and in complex with queuine | 8.9 ± 1.2 | 3.1 ± 0.2 | – |
| NCc1c[nH]c2nc(N)[nH]c(=O)c12 [preQ1, 7-aminomethyl-7-deazaguanine] | – | – | – | – | – | in complex with preQ1 and in complex with queuine |
